Read-outs that look alike come from different tables or passages of the source.
Key:
[1] = tested on: Pseudomonas aeruginosa PAO1 MB9798 (efflux+, IMP-1); details: ratio MITC95 PA 9798/MITC95 PA 9799; imipenem at 2 μg/mL
How it was run: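 Isogenic PAO1 pair (efflux+ MB9798, efflux− MB9799, both IMP-1) tested by microbroth MIC with fixed imipenem and/or ceftazidime, usually at CLSI breakpoint, plus fixed class A/C inhibitor against AmpC. MBL inhibitor titrated; concentration restoring susceptibility recorded and fold difference between strains taken as efflux extent.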

[2] = tested on: Serratia marcescens expressing IMP-1 (CL5741); format: cell-based; details: with imipenem 1 μg/ml, 95% inhibition of bacterial growth
Procedure: (§1) Antibiotic Potentiation Activity: Determination of Synergistic Concentration
(§2) The bacterial strains tested included the clinical strains Escherichia coli expressing NDM-1 (CLB30005, CLB30016), Serratia marcescens expressing IMP-1 (CL5741), and Klebsiella pneumoniae expressing VIM-1 (IHMA599644). Inhibitor activity was measured in the presence and absence of imipenem in a 384-well microplate.
(§3) The clinical strains CLB30016, CL5741 and IHMA599644 were grown on trypticase soy agar containing 5% sheep's blood. The bacteria on agar plates were incubated at 35° C. with humidity overnight. The following day, individual colonies from each clinical strain were picked and resuspended in 5 ml saline to attain an OD600 of 0.14, 0.11, 0.15 and 0.13, for CLB30016, CL5741 and IHMA599644, respectively. These were further diluted 1:100 into 1.1× CAMHB and used to inoculate the test wells as described below.
(§4) Imipenem in 10 mM 3-(N-morpholino)propanesulfonic acid (MOPS, pH 7) was stored in single use aliquots at −80° C. […] On the day of the assay, 4 μl of antibiotic was added to 45 ul of bacteria followed by 1 μl of test compound and mixed by pipetting and with an orbital shaker. The concentration of antibiotic used in the assay was 1 μg/ml. Microplates were covered and incubated at 35° C. for 22 hours to 24 hours. At the end of the incubation, absorbance was determined using a spectrophotometer.

[3] = tested on: Escherichia coli expressing NDM-1 (CLB30005, CLB30016); format: cell-based; details: with imipenem 1 μg/ml; 95% inhibition of bacterial growth
Procedure: as §1, §2, §3, §4

C[N+]1(C)CC(NS(=O)(=O)c2ccc(-c3cccc4[nH]c(N)nc34)c(-c3nn[nH]n3)c2S(N)(=O)=O)C1.O=C([O-])O [Example 245, 3-(4-(2-Amino-1H-benzo[d]imidazol-4-yl)-2-sulfamoyl-3-(2H-tetrazol-5-yl)phenylsulfonamido)-1,1-dimethylazetidin-1-ium hydrogencarbonate]
Efflux ratio [1]: 1.00
Serratia marcescens (IMP-1) MITC95 [2]: 1.563 µM

Nc1nc2c(-c3ccc(S(=O)(=O)NC[C@]4(N)CCNC4)c(S(N)(=O)=O)c3-c3nn[nH]n3)cccc2[nH]1 [Example 250, (S)-4-(2-amino-1H-benzo[d]imidazol-4-yl)-N1-((3-aminopyrrolidin-3-yl)methyl)-3-(2H-tetrazol-5-yl)benzene-1,2-disulfonamide]
Efflux ratio [1]: 1.00
Serratia marcescens (IMP-1) MITC95 [2]: 0.7813 µM

CN1CC(NS(=O)(=O)c2ccc(-c3cccc4[nH]c(N)nc34)c(-c3nn[nH]n3)c2S(N)(=O)=O)C1 [Example 256, 4-(2-amino-1H-benzo[d]imidazol-4-yl)-N1-(1-methylazetidin-3-yl)-3-(2H-tetrazol-5-yl)benzene-1,2-disulfonamide]
Efflux ratio [1]: 1.00
Serratia marcescens (IMP-1) MITC95 [2]: 0.7813 µM

NCCCCNS(=O)(=O)c1ccc(-c2cccc3[nH]c(N)nc23)c(-c2nn[nH]n2)c1S(N)(=O)=O [Example 258, 4-(2-amino-1H-benzo[d]imidazol-7-yl)-N1-(4-aminobutyl)-3-(2H-tetrazol-5-yl)benzene-1,2-disulfonamide]
Efflux ratio [1]: 1.00
Serratia marcescens (IMP-1) MITC95 [2]: 0.7813 µM

Nc1nc2c(-c3ccc(S(=O)(=O)NC[C@H]4CCNC4)c(S(N)(=O)=O)c3-c3nn[nH]n3)cccc2[nH]1 [Example 259, (S)-4-(2-amino-1H-benzo[d]imidazol-4-yl)-N1-(pyrrolidin-3-ylmethyl)-3-(2H-tetrazol-5-yl)benzene-1,2-disulfonamide]
Efflux ratio [1]: 1.00
Serratia marcescens (IMP-1) MITC95 [2]: 0.7813 µM

Nc1nc2c(-c3ccc(S(=O)(=O)NC[C@@H]4CCNC4)c(S(N)(=O)=O)c3-c3nn[nH]n3)cccc2[nH]1 [Example 263, (R)-4-(2-amino-1H-benzo[d]imidazol-4-yl)-N1-(pyrrolidin-3-ylmethyl)-3-(2H-tetrazol-5-yl)benzene-1,2-disulfonamide]
Efflux ratio [1]: 1.00
Serratia marcescens (IMP-1) MITC95 [2]: 0.7813 µM

CC[C@H](CN)NS(=O)(=O)c1ccc(-c2cccc3[nH]c(N)nc23)c(-c2nn[nH]n2)c1S(N)(=O)=O [Example 265, (R)-4-(2-amino-1H-benzo[d]imidazol-4-yl)-N1-(1-aminobutan-2-yl)-3-(2H-tetrazol-5-yl)benzene-1,2-disulfonamide]
Efflux ratio [1]: 1.00
Serratia marcescens (IMP-1) MITC95 [2]: 0.7813 µM

Cn1c(N)nc2c(-c3ccc(S(=O)(=O)NC[C@@H](O)CN)c(S(N)(=O)=O)c3-c3nn[nH]n3)cccc21 [Example 308, (S)-4-(2-amino-1-methyl-1H-benzo[d]imidazol-4-yl)-N1-(3-amino-2-hydroxypropyl)-3-(2H-tetrazol-5-yl)benzene-1,2-disulfonamide]
Efflux ratio [1]: 1.00
Serratia marcescens (IMP-1) MITC95 [2]: 0.7813 µM

Nc1ccc2cccc(-c3ccc(S(=O)(=O)N[C@H]4CNC[C@H]4N)c(S(N)(=O)=O)c3-c3nn[nH]n3)c2n1 [Example 324, N1-((3S,4R)-4-aminopyrrolidin-3-yl)-4-(2-aminoquinolin-8-yl)-3-(1H-tetrazol-5-yl)benzene-1,2-disulfonamide]
Efflux ratio [1]: 1.00
Serratia marcescens (IMP-1) MITC95 [2]: 0.7813 µM

N[C@@H]1CNC[C@@H]1NS(=O)(=O)c1ccc(-c2cccn3ccnc23)c(-c2nn[nH]n2)c1S(N)(=O)=O [Example 328, N1-((3S,4R)-4-aminopyrrolidin-3-yl)-4-(imidazo[1,2-a]pyridin-8-yl)-3-(2H-tetrazol-5-yl)benzene-1,2-disulfonamide]
Efflux ratio [1]: 1.00
Serratia marcescens (IMP-1) MITC95 [2]: 1.563 µM

NCCNS(=O)(=O)c1ccc(-c2cccc3[nH]c([C@H](N)CO)nc23)c(-c2nn[nH]n2)c1S(N)(=O)=O [Example 330, (S)-4-(2-(1-amino-2-hydroxyethyl)-1H-benzo[d]imidazol-4-yl)-N1-(2-aminoethyl)-3-(2H-tetrazol-5-yl)benzene-1,2-disulfonamide]
Efflux ratio [1]: 1.00
Serratia marcescens (IMP-1) MITC95 [2]: 1.563 µM

N[C@H]1C=C(c2ccc(S(=O)(=O)N[C@@H]3CCNC3)c(S(N)(=O)=O)c2-c2nn[nH]n2)CCC1 [Example 339, (R)-5′-amino-N4-((R)-pyrrolidin-3-yl)-2-(2H-tetrazol-5-yl)-2′,3′,4′,5′-tetrahydro-[1,1′-biphenyl]-3,4-disulfonamide]
Efflux ratio [1]: 4.00
Serratia marcescens (IMP-1) MITC95 [2]: 1.563 µM

N[C@@H]1C=C(c2ccc(S(=O)(=O)N[C@@H]3CCNC3)c(S(N)(=O)=O)c2-c2nn[nH]n2)CCC1 [Example 340, (S)-5′-amino-N4-((R)-pyrrolidin-3-yl)-2-(2H-tetrazol-5-yl)-2′,3′,4′,5′-tetrahydro[1,1′-biphenyl]-3,4-disulfonamide]
Efflux ratio [1]: 4.00
Serratia marcescens (IMP-1) MITC95 [2]: 1.563 µM

NCCNS(=O)(=O)c1ccc(-c2cccc3ccc(N)nc23)c(-c2nn[nH]n2)c1S(N)(=O)=O [Example 355, N1-(2-aminoethyl)-4-(2-aminoquinolin-8-yl)-3-(2H-tetrazol-5-yl)benzene-1,2-disulfonamide]
Efflux ratio [1]: 1.00
Serratia marcescens (IMP-1) MITC95 [2]: 0.7813 µM

NCCNS(=O)(=O)c1ccc(-c2cccn3ccnc23)c(-c2nn[nH]n2)c1S(N)(=O)=O [Example 361, N1-(2-aminoethyl)-4-(imidazo[1,2-a]pyridin-8-yl)-3-(2H-tetrazol-5-yl)benzene-1,2-disulfonamide]
Efflux ratio [1]: 1.00
Serratia marcescens (IMP-1) MITC95 [2]: 0.7813 µM

NC[C@@H](N)CNS(=O)(=O)c1ccc(-c2cnc3cc[nH]c3c2)c(-c2nn[nH]n2)c1S(N)(=O)=O [Example 378, (R)-N 1-(2,3-diaminopropyl)-4-(1H-pyrrolo[3,2-b]pyridin-6-yl)-3-(2H-tetrazol-5-yl)benzene-1,2-disulfonamide]
Efflux ratio [1]: 2.00
Serratia marcescens (IMP-1) MITC95 [2]: 1.563 µM

NCC(CN)NS(=O)(=O)c1ccc(-c2cccn3ccnc23)c(-c2nn[nH]n2)c1S(N)(=O)=O [Example 386, N1-(1,3-diaminopropan-2-yl)-4-(imidazo[1,2-a]pyridin-8-yl)-3-(2H-tetrazol-5-yl) benzene-1,2-disulfonamide]
Efflux ratio [1]: 1.00
Serratia marcescens (IMP-1) MITC95 [2]: 1.563 µM

C[C@H](CN)NS(=O)(=O)c1ccc(-c2cc(F)cc3[nH]c(N)nc23)c(-c2nn[nH]n2)c1S(N)(=O)=O [Example 396, (R)-4-(2-amino-6-fluoro-1H-benzo[d]imidazol-4-yl)-N^1-(1-aminopropan-2-yl)-3-(2H-tetrazol-5-yl)benzene-1,2-disulfonamide]
Escherichia coli (NDM-1) MITC95 [3]: 0.7813 µM

NC[C@@H](CO)NS(=O)(=O)c1ccc(-c2cccc3[nH]c(N)nc23)c(-c2nnn[nH]2)c1S(N)(=O)=O [Example 426, (S)-4-(2-Amino-1H-benzo[d]imidazol-4-yl)-N^1-(1-amino-3-hydroxypropan-2-yl)-3-(1H-tetrazol-5-yl)benzene-1,2-disulfonamide]
Escherichia coli (NDM-1) MITC95 [3]: 0.3906 µM

NCC(CN)NS(=O)(=O)c1ccc(-c2cccc3sc(N)nc23)c(-c2nn[nH]n2)c1S(N)(=O)=O [Example 436, 4-(2-aminobenzo[d]thiazol-4-yl)-N1-(1,3-diaminopropan-2-yl)-3-(2H-tetrazol-5-yl)benzene-1,2-disulfonamide]
Escherichia coli (NDM-1) MITC95 [3]: 0.7813 µM

NCC(CN)NS(=O)(=O)c1ccc(-c2ccnc(-c3cnc(N)[nH]3)c2)c(-c2nnn[nH]2)c1S(N)(=O)=O [Example 437, 4-(2-(2-Amino-1H-imidazol-5-yl)pyridin-4-yl)-N^1-(1,3-diaminopropan-2-yl)-3-(1H-tetrazol-5-yl)benzene-1,2-disulfonamide]
Escherichia coli (NDM-1) MITC95 [3]: 0.7813 µM

NCCNS(=O)(=O)c1ccc(-c2cccc3[nH]c(C4CNC4)nc23)c(-c2nn[nH]n2)c1S(N)(=O)=O [Example 443, N1-(2-aminoethyl)-4-(2-(azetidin-3-yl)-1H-benzo[d]imidazol-4-yl)-3-(2H-tetrazol-5-yl)benzene-1,2-disulfonamide]
Escherichia coli (NDM-1) MITC95 [3]: 0.7813 µM

CC1(NS(=O)(=O)c2ccc(-c3ccc(N)nc3)c(-c3nn[nH]n3)c2S(N)(=O)=O)CNC1.Cl.Cl [Example 497, 4-(6-aminopyridin-3-yl)-1-N-(3-methylazetidin-3-yl)-3-(2H-1,2,3,4-tetrazol-5-yl)benzene-1,2-disulfonamide hydrogen chloride]
Serratia marcescens (IMP-1) MITC95 ([2]; CL5741): 0.7813 µM

Reference: patent US10544130B2, “Metallo-beta-lactamase inhibitors” (priority 2015, dated 2020)
